Measurements published in patent US20030013650A1, “VR-OAC, an osomotically activated channel protein, nucleic acids encoding it, and uses thereof” (The Rockefeller University, priority 2000, published 2003).
“Also recorded” adds a separate entry of the source.

Legend:
[1] = system: VR-OAC; assay: Whole-cell and patch recordings from VR-OAC-transfected CHO-K1 cells; type: cell-based, chicken or rat; parameters: effect on VR-OAC-transfected cells (whole-cell current) / effect on whole-cell current: dose or concentration left out as unconfirmed; details: for VR-OAC currents on stimulation with hypotonic solution: after incubation in 10 μM thapsigargin and 20 μM SKF 96365 (combined)
Procedure: Electrophysiological characterization of VR-OAC was performed at room temperature on CHO-K1 cell lines stably or transiently transfected with one of four expression vectors, pcDNA3.1 (Invitrogen) with inserts bearing chicken or rat VR-OAC, eGFP-OAC, or eGFP-ΔOAC. These cells were selected because untransfected HEK 293 cells responded to hypotonic stress and Xenopus laevis oocytes are known to respond to membrane stretch (Yang and Sachs, 1989). Cells plated on glass-bottom Petri dishes were observed through a 40× water-immersion objective lens on an inverted microscope (Aviovert 100 M, Carl Zeiss) equipped with Nomarski optics. We recorded whole-cell and patch currents with a voltage-clamp amplifier (EPC-7, List-Electronic, Darmstadt-Eberstadt, Germany). Voltage stimuli were generated and responses recorded with a computer (P6400 GX1, Dell) running LabVIEW 5.0 software (National Instruments, Austin, Tex.). Voltage and current responses were low-pass filtered at 2 kHz with an eight-pole Bessel filter and sampled at 5 kHz.
Tight-seal pipettes were bent to permit an orthogonal approach to a cell's surface and heat-polished to give resistances of 3-5 MΩ. Internal solutions typically contained 117 mM NaCl, 5 mM HEPES, 1 mM EDTA, and mannitol to achieve isotonicity. EDTA was omitted in the pipette solution during experiments in which the bath solution also lacked EDTA. Pipette and cell capacitance were largely compensated; series resistance compensation ranged from 10% to 60%. Ground reference was provided by an Ag—AgCl electrode through a 150 mM KC1 agar bridge.
A fluid-jet stimulus was delivered by applying a pressure pulse of about 3 kPa to the rear of a glass pipette with a tip diameter of 5-10 μm. Filled with saline solution identical to that in the recording chamber, the pipette's tip was oriented perpendicular to the bottom of the chamber and placed roughly 10 μm above the target cell. The onset and termination of the jet were regulated by a solenoid valve (Picospritzer II, General Valve Corporation, Fairfield, N.J.) under computer control. During whole-cell recording, cells were maintained in isotonic or slightly hypertonic solutions. Mechanical stimulation was accomplished by perfusion of hypotonic solutions. […] Isotonic and hypertonic solutions were prepared by supplementing the standard hypotonic solution with mannitol to respectively 295 mmol kg−1 and 340 mmol kg−1.
In studies of the effects of Ca2+ and Gd3+ on whole-cell currents, hypotonic test solutions included respectively 2 mM CaCl2 or […] GdCl3. Because carboxylic-acid Ca2+ chelators are known to compromise the capacity of GdC13 to block mechanosensitive channels (Caldwell et al., 1998), EDTA was excluded from the latter medium and the pipette solution. […]

[2] = system: VR-OAC; assay: Ca2+ imaging (fluo-4) of CHO cells transfected with VR-OAC or variants; type: cell-based, rat and chicken; details: for fluo-4 fluorescence upon exposure to hypotonic medium: stores depleted with 10 μM thapsigargin and potentiation channels blocked with 20 μM SKF 96365 (combined); for response of VR-OAC-transfected cells to ligand (fluo-4 Ca2+ imaging): chicken and rat VR-OAC-transfected cells, resiniferatoxin 0.2 μM and 5 μM, anandamide 5 μM and 25 μM
Source text: (§1) To confirm that VR-OAC constitutes an ion channel and to determine the stimulus that gates it, we expressed the rat and chicken proteins in stably transfected Chinese hamster ovary (CHO) cells. Untransfected CHO cells and a line stably transfected with a VR1-expressing plasmid served as controls. We loaded VR-OAC-expressing cells with the Ca^2+ indicator fluo-4 AM and used conventional and confocal icroscopy to monitor changes in fluorescence, which reflected alterations in the ntracellular Ca^2+ concentration.
(§2) The complete cDNAs of rat VR-OAC, chicken VR-OAC, and rat VR1 were subcloned into the eukaryotic expression vector pcDNA3.1 (Invitrogen, Carlsbad, Calif.). CHO-K1 cells (ATCC, Manassas, Va.) were transfected with these vectors and selected with G418 (Life Technology, Gaithersburg, Md.). Stable clones that expressed the mRNAs were identified by Northern blot analysis and, for VR1, by response to ligand.
(§3) For Ca2+ imaging, cells were loaded for 30 min at room temperature in […] fluo-4 AM ester (Molecular Probes, Eugene, Oreg.) in isoosmotic Hille's saline solution (130 mM Na^+, 2.5 mM K^+, 2 mM Ca2+, 1 mM Mg2+, 138.5 mM Cl−, 20 mM D-glucose, and 10 mM HEPES at pH 7.3; Babcock et al., 1997) containing 2 mM probenecid. The cells were then washed and incubated for 15 min at 30° C. to promote deacetylation of internalized fluo-4 AM ester.
(§4) Confocal analysis was performed with an MRC-1024ES system (Bio-Rad, Hercules, Calif.) mounted on an inverted microscope (Zeiss Axiovert 135TV, Carl Zeiss, Jena, Germany). Confocal image series were collected using Lasersharp software (BioRad) running on a Poweredge 2300 computer (Dell Computer, Round Rock, Tex.). Images were also recorded with a cooled digital camera (Micromax, Princeton Instruments Inc., Princeton, N.J.) atop a Zeiss Axioplan microscope. These images were analyzed using IPLab software (Scanalytics Inc., Fairfax, Va.). Analysis of single-frame or single-cell integrated signal density was performed on Macintosh computers running NIH Image software (version 1.61; O'Neill et al., 1989).
(§5) Solutions with different osmotic strengths were created by adding water or mannitol to Hille's saline solution. Unless otherwise noted, the Ca2+ concentration of all solutions was held constant at 2 mM. The resultant osmolalities were verified with a vapor-pressure osmometer (Vapro 5520, Wescor Inc., Logan, Utah). The test solutions included a graded series of hypotonic solutions (with 220 mmol kg-1 the lowest osmolality), a hypertonic solution (330 mmol kg-1), isotonic solutions at 295 mmol kg-1 with graded concentrations of Na+ (with 50 mM the lowest concentration), and hypotonic solutions containing 100 μM, 250 μM, and 500 μM GdCl3. Ligands used for stimulation were resiniferatoxin (Sigma Chemicals, St. Louis, Mo.) at 0.2 μM and 5 μM and anandamide (Cayman Chemical, Ann Arbor, Mich.) at 5 μM and 25 μM. To test whether VR-OAC is directly gated by increases in temperature, we exposed dishes containing fluo-4-loaded cells to temperatures ranging from room temperature to 30° C., 37° C., 40° C., 45° C., 50° C., and 55° C. Images were acquired during the thermal stimulus series at intervals of 60 s for up to 10 min after the start of heating. A series of calibration experiments confirmed that this interval ensured proper thermal equilibration. A similar procedure was used to test the response to hypotonicity at various temperatures.

[3] = system: C. elegans mutant osm-9; assay: Transgenic rescue of C. elegans mutant osm-9 (osmotic avoidance, nose touch, odorant avoidance); type: in vivo, Caenorhabditis elegans; details: for rescue of lack of osmotic avoidance and lack of response to nose touch: expressed in ASH neurons (sra6 promotor) of osm-9 worms
Procedure: The coding region of the rat VR-OAC cDNA was cloned into the C. elegans expression vector pPD49.26 that contained the sra6 promotor. This promotor directs expression in the ASH and ASI neurons. Purified DNA was injected into the gonad of hermaphroditic worms, strain N2, together with the marker gene elt-2/green fluorescent protein (GFP) which directs expression of GFP in C. elegans intestinal cells. Transgenic offspring could be identified by GFP fluorescence, and VR-OAC transgenic lines of worms were generated. Likewise, several transgenic lines of worms were established and maintained on an osm-9 (ky-10 allele) genetic background. In these worms, an osmotic avoidance in response to hyperosmotic stimuli was clearly present, as was sensitivity to nose touch (FIGS. 15A and 15B). The avoidance reactions were assayed on single animals as previously described^34. Odorant avoidance in response to octanone was not present. […] In order to confirm that the observed rescue is mediated by the ASH neuron, both ASH neurons were laser ablated in osm-9/VR-OAC transgenic (tg) worms. This procedure completely abolished rescue (FIGS. 15A and 15B). In order to visualize subcellular localization of the VR-OACtg in the ASH neuron, GFP was tagged to the C-terminus of VR-OAC. The tagged protein could be localized to the cilia of the ASH neuron in the worm nose where fluorescence was stronger than in any other part of this neuron. Rescue was not impaired in VR-OAC/GFPtg osm-9 worms (FIGS. 15A and 15B).
In order to understand better the specificity of the observed rescue, VR-OACtg worms were crossed to C. elegans mutants which genetically define the alternate mechanosensory pathway. VR-OACtg worms of the following mutant lines were generated: ocr-2, odr-3, glr-1, osm-10 and double-mutants of the former with osm-9. These lines were tested for osmotic avoidance, nose touch and odorant avoidance. […] In another control experiment addressing the specificity of the observed rescue, we expressed rat VR1 under the control of the sra6 promotor in ASH neurons of wild type and osm-9 worms. No rescue was observed. However, in osm-9 as well as in wild type worms tg for VR1 there was a strong avoidance response to vanilloids which was absent in non-tg worms.
Next, we wanted to use the transgenic rescue of osm-9 by VR-OAC as an in-vivo model in order to better understand structure-function relationships of VR-OAC. Gross deletions were constructed lacking either the N-terminal intracellular domain (aminoacid [AA] 1-410 of VR-OAC), the C-terminal intracellular domain (AA 741-781 of VR-OAC) or both. Three lines of worms were established for each of the gross deletions. The line with the most pronounced rescue as an indication of highest expression level of tg was investigated more in depth. […] The N-terminus and the C-terminus thus appear dispensable for the response to osmotic and mechanical stimuli, and, most likely, for proper intracellular transport in the ASH neuron. In addition to these gross deletions, we wanted to learn more about the structure-function relationship of strategically positioned single amino acid exchanges in the pore-loop domain of VR-OAC. As for the gross deletions, three lines of worms were generated for each point mutation. […]

[4] = target: T1, rat VR1 (Rattus norvegicus, UniProt O35433); assay: Ca2+ imaging (fluo-4) of control CHO cells expressing rat VR1; type: cell-based; details: control CHO line expressing rat VR1; 200 nM resiniferatoxin (FIG. 10A legend)
T1 construct: The complete cDNAs of rat VR-OAC, chicken VR-OAC, and rat VR1 were subcloned into the eukaryotic expression vector pcDNA3.1; expressed in transfected cells
T1 sequence (O35433 whole entry): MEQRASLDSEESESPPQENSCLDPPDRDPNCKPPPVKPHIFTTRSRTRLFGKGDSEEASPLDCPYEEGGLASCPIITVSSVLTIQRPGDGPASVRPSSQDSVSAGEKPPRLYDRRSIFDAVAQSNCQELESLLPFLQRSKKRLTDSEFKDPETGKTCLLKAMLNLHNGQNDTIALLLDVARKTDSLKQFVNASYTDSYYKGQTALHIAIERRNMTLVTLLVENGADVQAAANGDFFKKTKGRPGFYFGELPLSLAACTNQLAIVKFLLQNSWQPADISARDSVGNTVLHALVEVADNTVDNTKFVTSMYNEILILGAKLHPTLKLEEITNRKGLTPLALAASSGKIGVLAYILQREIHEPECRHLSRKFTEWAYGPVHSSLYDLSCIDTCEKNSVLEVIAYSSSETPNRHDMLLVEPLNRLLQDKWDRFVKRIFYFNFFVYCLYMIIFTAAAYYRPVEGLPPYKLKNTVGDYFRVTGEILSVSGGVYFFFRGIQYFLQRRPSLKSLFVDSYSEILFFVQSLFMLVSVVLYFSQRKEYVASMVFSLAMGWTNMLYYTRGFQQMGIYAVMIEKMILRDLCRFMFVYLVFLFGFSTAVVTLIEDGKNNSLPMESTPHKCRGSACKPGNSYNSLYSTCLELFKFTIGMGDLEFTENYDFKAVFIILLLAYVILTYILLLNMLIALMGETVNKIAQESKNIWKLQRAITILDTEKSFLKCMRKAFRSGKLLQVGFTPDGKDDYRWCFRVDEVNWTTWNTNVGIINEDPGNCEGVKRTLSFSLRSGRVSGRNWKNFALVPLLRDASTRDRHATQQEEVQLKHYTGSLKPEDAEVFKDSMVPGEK
Source text: as §1
as §2, with “ligand. […]” for “ligand.”
Confocal analysis was performed with an MRC-1024ES system (Bio-Rad, Hercules, Calif.) mounted on an inverted microscope (Zeiss Axiovert 135TV, Carl Zeiss, Jena, Germany). […] Images were also recorded with a cooled digital camera (Micromax, Princeton Instruments Inc., Princeton, N.J.) atop a Zeiss Axioplan microscope. These images were analyzed using IPLab software (Scanalytics Inc., Fairfax, Va.). […]

[5] = target: T2, VR-OAC (Rattus norvegicus, UniProt Q9ERZ8, M680K); assay: Ca2+ imaging (fluo-4) of CHO cells transfected with VR-OAC or variants; type: cell-based, rat and chicken; details: tissue culture cells
T2 construct: The complete cDNAs of rat VR-OAC, chicken VR-OAC, and rat VR1 were subcloned into the eukaryotic expression vector pcDNA3.1; expressed in transfected cells; host or cells: CHO-K1 (stably or transiently transfected, pcDNA3.1)
T2 sequence (Q9ERZ8 whole entry M680K): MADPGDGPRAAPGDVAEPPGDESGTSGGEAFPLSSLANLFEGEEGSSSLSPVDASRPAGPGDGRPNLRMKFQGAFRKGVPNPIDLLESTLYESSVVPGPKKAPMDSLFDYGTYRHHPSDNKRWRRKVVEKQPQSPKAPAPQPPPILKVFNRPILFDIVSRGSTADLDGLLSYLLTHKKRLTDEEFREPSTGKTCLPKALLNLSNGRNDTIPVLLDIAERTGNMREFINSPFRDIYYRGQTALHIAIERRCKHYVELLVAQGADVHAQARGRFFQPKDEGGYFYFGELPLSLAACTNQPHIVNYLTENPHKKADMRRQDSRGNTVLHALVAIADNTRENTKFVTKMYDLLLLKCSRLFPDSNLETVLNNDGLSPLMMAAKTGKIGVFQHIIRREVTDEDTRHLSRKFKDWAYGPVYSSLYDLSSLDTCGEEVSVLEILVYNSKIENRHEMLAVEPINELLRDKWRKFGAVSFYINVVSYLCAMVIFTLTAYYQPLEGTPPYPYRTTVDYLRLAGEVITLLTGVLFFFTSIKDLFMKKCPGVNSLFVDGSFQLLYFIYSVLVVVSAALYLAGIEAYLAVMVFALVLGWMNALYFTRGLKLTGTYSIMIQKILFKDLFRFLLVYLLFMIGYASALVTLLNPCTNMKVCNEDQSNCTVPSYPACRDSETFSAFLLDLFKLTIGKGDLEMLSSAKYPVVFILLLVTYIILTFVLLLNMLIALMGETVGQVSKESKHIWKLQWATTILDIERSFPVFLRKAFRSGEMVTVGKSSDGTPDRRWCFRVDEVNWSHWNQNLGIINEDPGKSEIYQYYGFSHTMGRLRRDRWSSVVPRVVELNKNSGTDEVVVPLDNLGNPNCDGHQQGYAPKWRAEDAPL
Source text: as §1, §2, §3, §4, §5

C/C=C(/C)C(=O)O[C@H]1C(C)=C2[C@H]([C@@H]1OC(=O)CCCCCCC)[C@@](C)(OC(C)=O)C[C@H](OC(=O)CCC)[C@@]1(O)[C@H]2OC(=O)[C@@]1(C)O [thapsigargin]
VR-OAC currents on stimulation with hypotonic solution [1]: displayed characteristic VR-OAC currents | fluo-4 fluorescence upon exposure to hypotonic medium [2]: does not increase

rat VR-OAC: rat orthologue of VR-OAC, 871 amino acids
rescue of lack of osmotic avoidance and lack of response to nose touch [3]: partial rescue | rescue of lack of odorant avoidance ([3]; osm-9 worms, octanone): no rescue

COc1ccc(CCCOC(Cn2ccnc2)c2ccc(OC)cc2)cc1 (stereo not drawn) [SKF 96365]
VR-OAC currents on stimulation with hypotonic solution [1]: displayed characteristic VR-OAC currents | fluo-4 fluorescence upon exposure to hypotonic medium [2]: does not increase

[Gd+3] [Gd^3+, Gadolinium ion]
effect on VR-OAC-transfected cells (whole-cell current) ([1]; Gd^3+ extracellular, within the first few minutes): resembled that of Ca^2+ | effect on whole-cell current ([1]; Gd^3+, more protracted exposure): irreversibly abolished the whole-cell current

CCCCC/C=C\C/C=C\C/C=C\C/C=C\CCCC(=O)NCCO [anandamide]
response of VR-OAC-transfected cells to ligand (fluo-4 Ca2+ imaging) [2]: responded neither

rat VR1: rat vanilloid receptor 1, expressed as specificity control
rescue of lack of osmotic avoidance and lack of response to nose touch [3]: No rescue

C=C(C)[C@]12C[C@@H](C)[C@@]34O[C@](Cc5ccccc5)(O[C@@H]1[C@@H]3C=C(COC(=O)Cc1ccc(O)c(OC)c1)C[C@]1(O)C(=O)C(C)=C[C@@H]41)O2 [resiniferatoxin]
response of VR-OAC-transfected cells to ligand (fluo-4 Ca2+ imaging) [2]: responded neither | intracellular Ca^2+ concentration / Ca^2+ influx (fluo-4 fluorescence) [4]: strong Ca^2+ influx; also recorded: increases the intracellular Ca^2+ concentration

M680K: VR-OAC mutation of Lysine for Methionine at amino acid 680
rescue of lack of osmotic avoidance and lack of response to nose touch [3]: strikingly reduce rescue | function in tissue culture cells [5]: totally lacked function

B1: VROAC without both its N-terminus and C-terminus: VR-OAC deletion of both N-terminal (AA 1-410) and C-terminal (AA 741-781) regions (protein, UniProt Q9HBA0 411-740, looked up, fragment)
chain: YGPVYSSLYDLSSLDTCGEEASVLEILVYNSKIENRHEMLAVEPINELLRDKWRKFGAVSFYINVVSYLCAMVIFTLTAYYQPLEGTPPYPYRTTVDYLRLAGEVITLFTGVLFFFTNIKDLFMKKCPGVNSLFIDGSFQLLYFIYSVLVIVSAALYLAGIEAYLAVMVFALVLGWMNALYFTRGLKLTGTYSIMIQKILFKDLFRFLLVYLLFMIGYASALVSLLNPCANMKVCNEDQTNCTVPTYPSCRDSETFSTFLLDLFKLTIGMGDLEMLSSTKYPVVFIILLVTYIILTFVLLLNMLIALMGETVGQVSKESKHIWKLQWATT
rescue of lack of osmotic avoidance and lack of response to nose touch [3]: still rescues
